The values below come from patent publication US20110065734A1, “NOVEL BIFUNCTIONAL COMPOUNDS WHICH INHIBIT PROTEIN KINASES AND HISTONE DEACETYLASES” (4SC AG, priority 2007, published 2011).

For one data set, the target named is T1, Protein kinase A (PKA) (Homo sapiens, UniProt P17612).
T1 construct: purchased InvitroGen/Panvera, Carlsbad/USA
The data set can be described thus: Biochemical flash-plate based kinase assay, PKA. The text has this: (§1) Active kinase proteins were either obtained from commercial suppliers (Abl, PDGF-Rβ ProQinase, Freiburg/Germany; AblT^315I: Millipore/Upstate, Billerica/USA; PKA: InvitroGen/Panvera, Carlsbad/USA) or prepared in-house (KDR, c-terminal kinase domain AA790-1356, HER2 c-terminal kinase domain, EGFR/HER1 C-terminal kinase domain). As substrates, poly-AGKY for Abl, AblT^315I and PDGF-Rβ (#P-1152 Sigma, Munich/Germany), poly-GluTyr for KDR, HER2 and EGFR/HER1 (#P-0275, Sigma, Munich/Germany) or a PKA substrate peptide for PKA (#12-394, Millipore/Upstate, Billerica/USA) were used. Into each well of a 96-well flashplate (#SMP-200 in the case of Abl, Abl T^315I, PDGF-Rβ, EGFR, HER2 and KDR, #SMP-103 in the case of PKA; Perkin Elmer, Waltham/USA) kinase protein was diluted into kinase assay buffer (50 mM HEPES pH 7.5, 3 mM MgCl2, 3 mM MnCl2, 1 mM DTT, 3 μM sodium orthovanadate, 5 μg/ml PEG 8000) containing the appropriate substrate (final volume 89 μl). DMSO vehicle or compounds are added as 1 μl/well prior to the initiation of the kinase reaction by 10 μl 1 mM [^33P]-γATP (4×10^5 cpm). Reactions were allowed to proceed for a time predetermined to be linear on a time versus phosphorylation plot (30 min for PKA, otherwise 80 min) and terminated with the addition of an equal volume of phosphoric acid (2% H3PO4 for 5 minutes). Plates were washed three times with 0.9% w/v NaCl and quantitated by liquid scintillation counting.

For another data set, the target named is T2, Bcr-abl T^315I (Homo sapiens, UniProt P00519, T315I).
T2 construct: purchased Millipore/Upstate, Billerica/USA
Description: Biochemical flash-plate based kinase assay, Bcr-abl T315I. As to conditions: only a range over the listed compounds is given; read-out: Bcr-abl T^315I inhibition IC50.
From the text: as §1

Another data set addresses T3, EGFR/HER1 (Homo sapiens, UniProt P00533).
T3 construct: EGFR/HER1 C-terminal kinase domain; made in house
The data set can be described thus: Biochemical flash-plate based kinase assay, EGFR/HER1. As to conditions: only a range over the listed compounds is given; read-out: EGFR/HER1 inhibition IC50.
From the text: as §1

Data set [1] relates to histone H3 hyperacetylation in HeLa cervical carcinoma cells. The data set can be described thus: Cellular histone H3 hyperacetylation assay. The class given is cell-based. As to conditions: Homo sapiens, 24 h, only a range over the listed compounds is given, read-out: Induction of histone H3 hyperacetylation in HeLa cervical carcinoma cells EC50. The text has this:
To assess the cellular efficacy of a histone deacetylase inhibitor in vitro, an assay was set up in black clear-bottom 96-well plates and optimized for use on the Cellomics “ArrayScan II” platform for a quantitative calculation of histone acetylation. The protocol uses a polyclonal rabbit antibody, specifically binding to acetylated lysine 1-20 of human histone H3 on fixed cells with an Alexa Fluor 488 labeled goat anti rabbit-IgG used for counterstaining (Beckers et al. Int J. Cancer 121, 1138, 2007).
5×10^3 HeLa cervical carcinoma cells/well (ATCC. CCL-2) in 200 μl Dulbecco rs modified Eagle's medium (DMEM) containing 10% fetal calf serum are seeded at day 1 in Packard view plates and incubated for 24 h under standard cell culture conditions. On day 2, 1 μl test compound (200× final concentration) is added and incubation continued for further 24 h. On day 3, the culture medium is discarded and attached cells fixed for 15 min at room temperature by addition of 100 μl fixation buffer (3.7% v:v formaldehyde in phosphate buffered saline/PBS). After discarding the fixation buffer and one wash with blocking solution (1% BSA, 0.3% Tween 20 in PBS), cells are permeabilized at room temperature by addition of 100 μl/well permeabilization buffer (30.8 mM NaCl, 0.54 mM Na2HPO4, 0.31 mM KH2PO4, 0.1% v:v Triton X-100) for 15 min at room temperature. After discarding the permeabilization buffer and washing twice with 100 μl/well blocking solution at room temperature, the 1st antibody (anti-K^1-20 histone H3 antibody, Calbiochem No. 382158) in blocking solution (50 μl/well) is added. After incubation for 1 h at room temperature, the wells are washed twice at room temperature with 100 μl/well blocking solution before addition of the 2nd antibody (goat-anti-rabbit Alexa Fluor 488; MoBiTec No. A-11008) in blocking solution (50 μl/well). After further incubation for 1 h at room temperature, wells are washed twice with 100 μl/well blocking solution at room temperature. Finally, 100 μl/well PBS are added and image analysis performed on the Cellomics “ArrayScan II” platform. For EC50 determination, the percentage of positive cells showing nuclear fluorescence is determined and EC50 calculation done from concentration-effect curves by means of non-linear regression. For calibration, a positive (reference HDAC inhibitors like SAHA or NVP LBH-589) and a negative control were included.

For a further data set, the target named is T4, Bcr-abl (wt) (Homo sapiens, UniProt P00519).
T4 construct: purchased ProQinase, Freiburg/Germany
T4 sequence (P00519 118-553 limits assumed): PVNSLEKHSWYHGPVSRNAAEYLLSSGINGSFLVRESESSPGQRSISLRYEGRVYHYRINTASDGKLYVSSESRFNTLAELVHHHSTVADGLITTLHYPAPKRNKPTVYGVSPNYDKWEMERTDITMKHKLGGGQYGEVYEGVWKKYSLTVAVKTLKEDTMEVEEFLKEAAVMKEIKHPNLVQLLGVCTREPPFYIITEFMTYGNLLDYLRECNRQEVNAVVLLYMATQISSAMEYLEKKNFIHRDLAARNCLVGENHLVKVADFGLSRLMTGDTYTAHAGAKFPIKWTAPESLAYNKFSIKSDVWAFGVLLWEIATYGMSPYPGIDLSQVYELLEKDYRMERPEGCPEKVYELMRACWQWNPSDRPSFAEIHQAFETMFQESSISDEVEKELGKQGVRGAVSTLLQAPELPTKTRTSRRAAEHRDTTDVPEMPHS
Description: Biochemical flash-plate based kinase assay, Bcr-abl (wt). As to conditions: only a range over the listed compounds is given; read-out: Bcr-abl (wt) inhibition IC50.
From the text: as §1

The test system of data set [2] is EOL1 acute hypereosinophilic myeloid leukemia cell line. Description: Cellular cytotoxicity assay (Alamar Blue), EOL1. The format is cell-based. As to conditions: Homo sapiens, 72 h, only a range over the listed compounds is given, read-out: Cytotoxicity towards EOL1 cell line IC50. The procedure:
(§2) The anti-proliferative activity of the chimeric HDAC and protein kinase inhibitory chimeric compounds of the present invention was evaluated using HeLa cervical carcinoma, A549 NSCLC, SKOV3 ovarian carcinoma, Cal27 head and neck cancer, K562 chronic myeloid leukemia (CML) and EOL1 acute hypereosinophilic myeloid leukemia, cell lines. For quantification of cellular proliferation/living cells the Alamar Blue (Resazurin) cell viability assay was applied (O'Brien et al. Eur Biochem. 267, 5421-5426, 2000). In this assay Resazurin is reduced to the fluorescent resorufin by cellular dehydrogenase activity, correlating with viable, proliferating cells. The examples were dissolved as 20 mM solutions in dimethylsulfoxide (DMSO) and subsequently diluted in semi-logarithmic steps. Cell lines were seeded at respective density into 96 well flat bottom plates in a volume of 200 μl per well. 24 h after seeding 1 μl each of the compound dilutions were added into each well of the 96 well plate. Each compound dilution was tested as quadruplicates. Wells containing untreated control cells were filled with […] DMEM medium containing 0.5% v:v DMSO. The cells were then incubated with the substances for 72 h at 37° C. in a humidified atmosphere containing 5% carbon dioxide. To determine the viability of the cells, 20 μl of an Resazurin solution (Sigma; 90 mg/l) were added. After 4 h incubation at 37° C. the fluorescence was measured at an extinction of 544 nm and an emission of 590 nm. For the calculation of the cell viability the emission value from untreated cells was set as 100% viability and the emission rates of treated cells were set in relation to the values of untreated cells. Viabilities were expressed as % values. The corresponding IC50 values of the compounds for cytotoxic activity are determined from the concentration-effect curves by means of non-linear regression.
On the technique in general: The colour change of resazurin is a common sign of viable cells or microbes.

For data set [3], the target named is T5, recombinant HDAC1 isolated from HEK293 cells with heterologous HDAC1 expression (Homo sapiens, UniProt Q13547).
T5 construct: made in house
Description: Fluorimetric rHDAC1 activity assay. The class given is biochemical. As to conditions: only a range of IC50 over the compounds given; read-out: rHDAC1 inhibitory activity IC50.

The target in a further data set is T6, PDGFRβ (Homo sapiens, UniProt P09619).
T6 construct: purchased ProQinase, Freiburg/Germany
Description: Biochemical flash-plate based kinase assay, PDGFRβ. As to conditions: only a range over the listed compounds is given; read-out: PDGFRβ inhibition IC50.
From the text: as §1

A further data set has as its system A549 NSCLC cell line. Description: Cellular cytotoxicity assay (Alamar Blue), A549. As to conditions: Homo sapiens. The class given is cell-based. The procedure:
as §2

Data set [4] deals with K562 chronic myeloid leukemia (CML) cell line. The data set can be described thus: Cellular cytotoxicity assay (Alamar Blue), K562. The class given is cell-based. As to conditions: Homo sapiens, 72 h, only a range over the listed compounds is given, read-out: Cytotoxicity towards K562 CML cell line IC50. The procedure:
as §2

Data set [5] concerns HeLa cervical carcinoma cell line. The data set can be described thus: Cellular cytotoxicity assay (Alamar Blue), HeLa. The class given is cell-based. As to conditions: Homo sapiens, 72 h, only a range over the listed compounds is given, read-out: Cytotoxicity towards HeLa cervical cell line IC50. The procedure: as §2
The test system of data set [6] is Cal27 head and neck cancer cell line. Description: Cellular cytotoxicity assay (Alamar Blue), Cal27. The format is cell-based. As to conditions: Homo sapiens, CAL-27; 72 h; only a range over the listed compounds is given; read-out: Cytotoxicity towards Cal27 cell line IC50. The procedure: as §2
[7] abbreviates: A549, 72 h, only a range over the listed compounds is given, read-out: Cytotoxicity towards A549 NSCLC cell line IC50.

Structures can show the parent of a compound that is named as a salt. Where two headings read alike, the source gives them in different places.

T3 sequence (P00533 712-979 limits assumed): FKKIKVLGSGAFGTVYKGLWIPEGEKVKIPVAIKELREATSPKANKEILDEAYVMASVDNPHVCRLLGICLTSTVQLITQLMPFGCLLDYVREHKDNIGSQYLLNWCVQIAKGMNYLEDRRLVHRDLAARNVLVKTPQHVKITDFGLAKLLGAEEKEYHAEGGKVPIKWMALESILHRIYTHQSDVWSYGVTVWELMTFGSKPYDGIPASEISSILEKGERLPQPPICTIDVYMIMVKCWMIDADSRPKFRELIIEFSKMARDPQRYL
T5 sequence (Q13547 whole entry): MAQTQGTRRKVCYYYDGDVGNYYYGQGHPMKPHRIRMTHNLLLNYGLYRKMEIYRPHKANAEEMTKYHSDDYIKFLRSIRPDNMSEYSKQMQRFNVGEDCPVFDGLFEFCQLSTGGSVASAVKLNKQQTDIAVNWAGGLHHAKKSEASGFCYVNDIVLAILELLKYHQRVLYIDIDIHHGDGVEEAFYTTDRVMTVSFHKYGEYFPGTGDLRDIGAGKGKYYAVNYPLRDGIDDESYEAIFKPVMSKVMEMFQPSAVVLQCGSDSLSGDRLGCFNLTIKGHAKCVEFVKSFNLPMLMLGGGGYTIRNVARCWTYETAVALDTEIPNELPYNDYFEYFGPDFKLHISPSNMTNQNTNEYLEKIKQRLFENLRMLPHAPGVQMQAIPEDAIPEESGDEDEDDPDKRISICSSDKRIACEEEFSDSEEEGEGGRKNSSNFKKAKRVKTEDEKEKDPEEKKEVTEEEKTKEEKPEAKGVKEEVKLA
T6 sequence (P09619 33-1106): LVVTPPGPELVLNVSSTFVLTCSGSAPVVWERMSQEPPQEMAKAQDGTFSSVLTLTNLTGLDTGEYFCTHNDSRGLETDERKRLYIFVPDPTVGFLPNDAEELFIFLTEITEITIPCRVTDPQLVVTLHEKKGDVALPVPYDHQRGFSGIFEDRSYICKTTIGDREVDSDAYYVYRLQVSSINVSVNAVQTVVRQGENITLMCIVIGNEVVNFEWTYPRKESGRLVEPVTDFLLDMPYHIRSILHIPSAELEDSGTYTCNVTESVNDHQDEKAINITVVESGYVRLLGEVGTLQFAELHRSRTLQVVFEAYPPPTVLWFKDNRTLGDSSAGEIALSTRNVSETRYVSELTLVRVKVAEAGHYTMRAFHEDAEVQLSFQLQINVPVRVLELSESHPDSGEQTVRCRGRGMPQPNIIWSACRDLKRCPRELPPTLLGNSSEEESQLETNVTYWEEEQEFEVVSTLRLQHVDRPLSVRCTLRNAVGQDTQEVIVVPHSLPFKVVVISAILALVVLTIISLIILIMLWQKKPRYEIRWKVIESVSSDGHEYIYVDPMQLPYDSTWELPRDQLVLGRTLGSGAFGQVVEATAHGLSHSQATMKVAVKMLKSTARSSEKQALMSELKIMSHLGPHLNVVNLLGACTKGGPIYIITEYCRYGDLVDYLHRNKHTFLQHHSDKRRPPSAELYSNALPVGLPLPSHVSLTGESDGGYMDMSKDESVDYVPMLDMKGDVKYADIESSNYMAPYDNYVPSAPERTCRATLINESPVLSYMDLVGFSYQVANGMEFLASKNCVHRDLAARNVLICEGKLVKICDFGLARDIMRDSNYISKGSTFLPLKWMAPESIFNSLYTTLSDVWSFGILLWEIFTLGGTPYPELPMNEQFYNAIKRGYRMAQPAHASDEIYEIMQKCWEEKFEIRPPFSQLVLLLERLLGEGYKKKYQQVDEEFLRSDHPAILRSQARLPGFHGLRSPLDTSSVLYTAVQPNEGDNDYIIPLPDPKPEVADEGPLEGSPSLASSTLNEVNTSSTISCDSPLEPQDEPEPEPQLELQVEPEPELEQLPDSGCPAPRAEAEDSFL

For the compound `CN(C(=O)c1ccc(C(=O)Nc2ccccc2N)cc1)c1cccc(Nc2nccc(-c3cccnc3)n2)c1` [[30], N-(2-Amino-phenyl)-N′-methyl-N′-[3-(4-pyridin-3-yl-pyrimidin-2-ylamino)-phenyl]-terephthalamide], the melting point is 204.6 °C (dec.). The compound further gave an IC50 on Protein kinase A (PKA) of 38000 nM. At Bcr-abl T^315I, the IC50 was in the range of 1000 to 34000 nM.
For `O=C(NO)c1ccc(-c2ccc3ncnc(Nc4ccc(OCc5cccc(F)c5)c(Cl)c4)c3c2)s1` [[4], 5-{4-[3-Chloro-4-(3-fluorobenzyloxy)phenyl-amino]quinazolin-6-yl}thiophene-2-carboxylic acid hydroxyamide hydrochloride dihydrate], the IC50 at EGFR/HER1 was in the range of 2.2 to 150 nM. In addition, the EC50 in data set [1] is at least 3650 nM.
Consider `Cc1ccc(NC(=O)c2ccc(/C=C/C(=O)NO)cc2)cc1Nc1nc(-c2cccnc2)cs1` [[19], (E)-4-(3-(hydroxyamino)-3-oxoprop-1-enyl)-N-(4-methyl-3-(4-(pyridin-3-yl)thiazol-2-ylamino)phenyl)benzamide], for which the IC50 at Bcr-abl (wt) was 2000 to 39000 nM; on Bcr-abl T^315I it was 1000 to 34000 nM; in data set [2] it was 3 to 780 nM; in data set [3], 77 to 1400 nM; at PDGFRβ it was 2100 to 71000 nM.
In the case of `Cc1ccc(NC(=O)c2ccc(/C=C/C(=O)NO)s2)cc1Nc1nc(-c2cccnc2)cs1` [[33], (E)-5-(3-(hydroxyamino)-3-oxoprop-1-enyl)-N-(4-methyl-3-(4-(pyridin-3-yl)thiazol-2-ylamino)phenyl)thiophene-2-carboxamide], the melting point turned out to be 241.6 °C. Also, the IC50 on Bcr-abl (wt) fell in the range of 2000 to 39000 nM. The IC50 at Bcr-abl T^315I was in the range of 1000 to 34000 nM. Moreover, in the data set on A549 NSCLC cell line (setting [7]), the IC50 was at least 2.95e-06 M.
With `Cc1ccc(NCc2ccc(C(=O)Nc3ccccc3N)cc2)cc1Nc1nccc(-c2cccnc2)n1` [[15], N-(2-Amino-phenyl)-4-{[4-methyl-3-(4-pyridin-3-yl-pyrimidin-2-ylamino)-phenylamino]-methyl}-benzamide], the IC50 in data set [4] was 490 to 4070 nM; on Bcr-abl (wt) it was 2000 to 39000 nM; on Bcr-abl T^315I it was 1000 to 34000 nM; in [5], at least 1150 nM; with A549 NSCLC cell line (setting [7]), at least 2.95e-06 M; on PDGFRβ, 2100 to 71000 nM.
The compound `O=C(/C=C/c1ccc(-c2ccc3ncnc(Nc4ccc(OCc5cccc(F)c5)c(Cl)c4)c3c2)s1)NO` [[7], E-3-(5-{4-[3-Chloro-4-(3-fluorobenzyloxy)-phenylamino]quinazolin-6-yl}thiophene-2-yl)-N-hydroxy-acrylamide hydrochloride monohydrate] had an IC50 against Protein kinase A (PKA) of 35000 nM.
Regarding `O=C(/C=C/c1ccc(-c2ccc3ncnc(Nc4ccc(OCc5cccc(F)c5)c(Cl)c4)c3c2)o1)NO` [[2], E-3-(5-{4-[3-Chloro-4-(3-fluorobenzyloxy)-phenylamino]quinazolin-6-yl}furan-2-yl)-N-hydroxy-acrylamide hydrochloride monohydrate], the IC50 was 2.2 to 150 nM on EGFR/HER1; at least 1.1e-06 M with A549 NSCLC cell line (A549, 72 h, read-out: Cytotoxicity towards A549 NSCLC cell line IC50 (M)); at least 35.3 nM in data set [3]. Further, the EC50 in [1] is at least 3650 nM.
With `C#Cc1cccc(Nc2ncnc3ccc(NC(=O)c4ccc(C(=O)Nc5ccccc5N)nc4)cc23)c1` [[36], N^2-(2-aminophenyl)-N^5-(4-(3-ethynylphenylamino)-quinazolin-6-yl)pyridine-2,5-dicarboxamide], the melting point fell in the range of 213 to 216 °C. Also, the IC50 in data set [6] lay within 160 to 8000 nM. Moreover, at EGFR/HER1, the IC50 was in the range of 2.2 to 150 nM.

As usually defined, the melting point is the temperature, or range, at which the solid turns liquid. What is called EC50 is the concentration needed to bring the measured effect to its halfway point.
